Structures can show the parent of a compound that is named as a salt.
Legend:
[1] = cited from earlier work; for oral bioavailability of acyclovir: oral administration
[2] = cited from earlier work
[3] = Drug loading into ion exchange resin, evaluated spectrophotometrically; format: physicochemical; conditions: for % w/w unbound drug: resin not named
Method: Mediums of different pH were examined in order to achieve the maximum drug loading into the resin. For this reason, the pH of solutions was adjusted at 3, 4, 5, 6, and 7. The drug loaded was evaluated spectrophotometrically. […] Buffer pH=7 enhanced more the effect of drug loading.
The next step was to examine the effect of drug loading into the resin for buffer pH=7 of different ion strength. For this reason, buffer pH=7 of normality 0.1N, 0.2N, 1N were prepared and the drug loaded was evaluated spectrophotometrically as before. Buffer pH=7 0.2N was the most suitable medium as the higher drug loading was reached. (61.60%±2.05%).
At this point of studies, the research focused on the type of IER. For this reason, resins of different functional group were examined to reach the higher drug loading. […] As a result, Purolite C100CaMR and Indion 204 were the most preferred resins that could form hydrogen bonds with the cationic center of Valaciclovir and prevent the release in saliva.

SMILES	oral bioavailability of acyclovir [1]	absorption from the gastrointestinal tract ([1]; after oral administration)	conversion to acyclovir and L-valine ([1]; first-pass intestinal and/or hepatic metabolism)	solubility in dichloromethane ([2]; dichloromethane)	solubility in water ([2]; water)	drug loading ([3]; Buffer pH=7 0.2N)	% w/w unbound drug ([3]; medium pH 3)	% w/w unbound drug ([3]; medium pH 4)	% w/w unbound drug ([3]; medium pH 5)	% w/w unbound drug ([3]; medium pH 6)	% w/w unbound drug ([3]; medium pH 7)	% w/w unbound drug ([3]; water)	water solubility ([1]; in vivo)
CC(C)[C@H](N)C(=O)OCCOCn1cnc2c(=O)[nH]c(N)nc21 [Valaciclovir, L-valyl acyclovir]	high bioavailability of acyclovir	–	–	–	–	–	–	–	–	–	–	–	–
CC(C)[C@H](N)C(=O)OCCOCn1cnc2c(=O)[nH]c(N)nc21 [Valaciclovir hydrochloride, L-valine, 2-[(2-amino-1,6-dihydro-6-oxo-9H-purin-9-yl)methoxy] ethyl ester, mono hydrochloride]	–	rapidly absorbed	nearly completely converted	insoluble	soluble	61.60%±2.05%	79.85%±2.19%	75.24%±2.91%	66.69%±2.76%	61.19%±2.61%	30.91%±2.53%	72.61%±2.81%	–
Nc1nc2c(ncn2COCCO)c(=O)[nH]1 [acyclovir]	poor oral bioavailability	–	–	–	–	–	–	–	–	–	–	–	poorly water soluble

Reference: patent US20170202844A1, “PEDIATRIC CHEWABLE TABLET CONTAINING ANTIVIRAL AGENT AND METHOD FOR THE PREPARATION THEREOF” (PHARMATHEN S.A., priority 2014, published 2017)
